Experiment in all cases: microbe, parasite or virus in culture
Format in all cases: cell-based

Assay [1] relates to ATCC 35837 Ethambutol Resistant. The settings on record: Mycobacterium tuberculosis, ATCC35837, 48 h.
Assay [2] has as its system ATCC 35830 Ethionamide Resistant. The settings on record: Mycobacterium tuberculosis, ATCC35830, 48 h.
Assay [3] has as its system ATCC 35820 Streptomycin Resistant. The settings on record: Mycobacterium tuberculosis, ATCC35820, 48 h.
The test system of assay [4] is ATCC 35822 Isoniazid Resistant. To be noted: Mycobacterium tuberculosis, ATCC35822, 48 h.
The test system of assay [5] is ATCC 35827 Kanamycin Resistant. The settings on record: Mycobacterium tuberculosis, ATCC35827, 48 h.
The test system of assay [6] is ATCC 35821 Para-aminosalicylic Resistant. To be noted: Mycobacterium tuberculosis, ATCC35821, 48 h.

In brackets after ≈: the same amount, converted by molar mass.

For `O=C1Nc2ccc(Cl)cc2C1=NNC(=O)c1ccncc1` [Compound 3a], the MIC was determined as 1.25 µg/mL (≈ 4.16 µM) in assay [1]; 10 µg/mL (≈ 33.3 µM) in assay [2]; 25 µg/mL (≈ 83.1 µM) in assay [3]; 10 µg/mL (≈ 33.3 µM) in assay [4]; 25 µg/mL (≈ 83.1 µM) in assay [5]; 25 µg/mL (≈ 83.1 µM) in assay [6].
Turning to `O=C1Nc2ccc([N+](=O)[O-])cc2C1=NNC(=O)c1ccncc1` [Compound 3c], the MIC in assay [1] was determined as 0.156 µg/mL (≈ 0.501 µM); in assay [2], 0.5 µg/mL (≈ 1.61 µM); in assay [3] it was 156 µg/mL (≈ 501 µM); in assay [4], 10 µg/mL (≈ 32.1 µM); in assay [5], 312 µg/mL (≈ 1000 µM); in assay [6], 156 µg/mL (≈ 501 µM).
Consider `O=C1Nc2ccc(OC(F)(F)F)cc2C1=NNC(=O)c1ccc([N+](=O)[O-])o1` [Compound 3e], for which the MIC in assay [1] was 2.5 µg/mL (≈ 6.51 µM); in assay [2] it was 0.5 µg/mL (≈ 1.3 µM); in assay [3] it was 25 µg/mL (≈ 65.1 µM); in assay [4], 5 µg/mL (≈ 13 µM); in assay [5], 5 µg/mL (≈ 13 µM); in assay [6], 0.5 µg/mL (≈ 1.3 µM).
On to `O=C(NN=C1C(=O)N(Cc2ccccc2)c2ccccc21)c1ccc([N+](=O)[O-])o1` [Compound 3g], for which the MIC in assay [1] amounted to 0.156 µg/mL (≈ 0.4 µM); in assay [2] it was 156 µg/mL (≈ 400 µM); in assay [3] it was 78 µg/mL (≈ 200 µM); in assay [4] it was 156 µg/mL (≈ 400 µM); in assay [5] it was 156 µg/mL (≈ 400 µM); in assay [6], 312 µg/mL (≈ 799 µM).
